Results: ChEMBL document CHEMBL1201862, “PubChem BioAssay data set” (2004)
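Following 48 hours of exposure in 96-well plates, responses at five concentrations were used to interpolate endpoints linearly. GI50 = concentration required for 50% inhibition of growth.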 Calls of active or inactive are those of the source. Cut-off read from the data, not from the text of the source: active = GI50 up to about 1.1 µM and inactive = higher. Where a SMILES comes first, the peptide text is derived from it. The star is where a group is joined. Boc = CC(C)(C)OC(=O)*

Assays:
Assay in all cases: NCI-60 cell line screen, 48 h
[1] = system: PC-3
[2] = system: A498
[3] = system: HCT-116
[4] = system: HCT-15
[5] = system: HOP-92
[6] = system: SK-MEL-5
[7] = system: SNB-19
[8] = system: SNB-75
[9] = system: SW-620
[10] = system: SF-295
[11] = system: RPMI-8226
[12] = system: UO-31
[13] = system: TK-10
[14] = system: K562
[15] = system: IGROV-1
[16] = system: OVCAR-3
[17] = system: SN12C
[18] = system: MOLT-4
[19] = system: HT-29
[20] = system: SK-MEL-28

COC(=O)c1ccc(/C=C/C2=CC(=O)C=CC2=O)cc1
GI50 [1]: 12.8 µM (inactive) | GI50 [2]: 18.7 µM (inactive) | GI50 [3]: 15.1 µM (inactive) | GI50 [4]: 16.1 µM | GI50 [5]: 13.5 µM (inactive) | GI50 [6]: 20.8 µM (inactive) | GI50 [7]: 10.5 µM (inactive) | GI50 [8]: 32.8 µM (inactive) | GI50 [9]: 16.8 µM (inactive) | GI50 [10]: 29.6 µM (inactive) | GI50 [11]: 1.01 µM (active) | GI50 [12]: 11.4 µM (inactive) | GI50 [13]: 21.2 µM (inactive) | GI50 [14]: 2.43 µM (inactive) | GI50 [15]: 16.7 µM (inactive) | GI50 [16]: 9.73 µM (inactive) | GI50 [17]: 18.9 µM (inactive) | GI50 [18]: 2.74 µM (inactive) | GI50 [19]: 21.5 µM (inactive) | GI50 [20]: 20.8 µM (inactive)

CC1=C(C(=O)OC2CC3CCC2(C)C3(C)C)C2Nc3ccccc3N(C)C2O1 (stereo not given)
GI50 [1]: 2.52 µM (inactive) | GI50 [2]: 6.12 µM (inactive) | GI50 [3]: 2.79 µM (inactive) | GI50 [4]: 2.01 µM | GI50 [5]: 3.22 µM (inactive) | GI50 [6]: 1.69 µM (inactive) | GI50 [7]: 3.48 µM (inactive) | GI50 [8]: 3.43 µM (inactive) | GI50 [9]: 2.14 µM (inactive) | GI50 [10]: 1.72 µM (inactive) | GI50 [11]: 2.17 µM (inactive) | GI50 [12]: 2.5 µM (inactive) | GI50 [13]: 4.07 µM (inactive) | GI50 [14]: 3.66 µM (inactive) | GI50 [15]: 1.77 µM (inactive) | GI50 [16]: 2.24 µM (inactive) | GI50 [17]: 1.78 µM (inactive) | GI50 [18]: 1.84 µM (inactive) | GI50 [19]: 1.56 µM (inactive) | GI50 [20]: 5.02 µM (inactive)

CCOC(=O)C(CC(C)C)NC(=O)C(Cc1ccccc1)NC(=O)CNC(=O)OC(C)(C)C (stereo not drawn) (Boc-Gly-Phe-Leu-OEt; configuration not given here)
GI50 [1]: 20 µM (inactive) | GI50 [2]: 22.1 µM (inactive) | GI50 [3]: 17.9 µM (inactive) | GI50 [4]: 18.4 µM | GI50 [5]: 25.2 µM (inactive) | GI50 [6]: 20.8 µM (inactive) | GI50 [7]: 31.6 µM (inactive) | GI50 [8]: 16.3 µM (inactive) | GI50 [9]: 20.6 µM (inactive) | GI50 [10]: 34.8 µM (inactive) | GI50 [11]: 20.9 µM (inactive) | GI50 [12]: 45.8 µM (inactive) | GI50 [13]: 31 µM (inactive) | GI50 [14]: 19 µM (inactive) | GI50 [15]: 21.6 µM (inactive) | GI50 [16]: 17.2 µM (inactive) | GI50 [17]: 19.2 µM (inactive) | GI50 [18]: 11.1 µM (inactive) | GI50 [19]: 18.1 µM (inactive) | GI50 [20]: 16.6 µM (inactive)
